What was measured:
CDK2/CycE = target: T1, CDK2/CycE (Homo sapiens, UniProt P24941); assay: CDK2/CycE kinase assay (TR-FRET, 2 mM ATP); type: biochemical; conditions: 2 mM ATP (high ATP); median; read-out: CDK2/CyclinE, 2 mM ATP (high ATP), IC50 (median)
T1 construct: purchased ProQinase GmbH (Freiburg, Germany); host or cells: insect cells (Sf9)
Summary of the method: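 GST-tagged human CDK2 and CycE from Sf9 cells, about 10 ng/ml, pre-incubated 15 min at 22 °C with compound in Tris/HCl pH 8.0 buffer. Reaction with 2 mM ATP and 0.75 µM biotinylated peptide for 25 min at 22 °C. Phospho-RB antibody TR-FRET (665/620 nm ratio) read after 1 h; data normalised to no-inhibitor and no-enzyme controls.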

CDK9/CycT1 = target: T2, CDK9/CycT1 (Homo sapiens, UniProt P50750); assay: CDK9/CycT1 high ATP kinase assay (TR-FRET, 2 mM ATP); type: biochemical; conditions: 2 mM ATP (high ATP); median; read-out: CDK9/CyclinT1, 2 mM ATP (high ATP), IC50 (median)
T2 construct: Recombinant full-length His-tagged human CDK9 and CycT1; purchased Life Technologies PV4131; host or cells: insect cells
T2 sequence (P50750 whole entry): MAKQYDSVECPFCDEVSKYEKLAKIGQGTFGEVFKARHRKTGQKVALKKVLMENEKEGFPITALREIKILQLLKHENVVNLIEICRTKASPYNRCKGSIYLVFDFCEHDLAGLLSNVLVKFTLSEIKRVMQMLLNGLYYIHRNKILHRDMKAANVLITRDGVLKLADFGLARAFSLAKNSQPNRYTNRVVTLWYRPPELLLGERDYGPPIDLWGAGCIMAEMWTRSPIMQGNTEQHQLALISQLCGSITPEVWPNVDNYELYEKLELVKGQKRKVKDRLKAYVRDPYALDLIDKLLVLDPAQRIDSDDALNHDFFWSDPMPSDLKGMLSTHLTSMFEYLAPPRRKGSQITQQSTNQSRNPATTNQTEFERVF
T2 sequence (O60563 whole entry partner): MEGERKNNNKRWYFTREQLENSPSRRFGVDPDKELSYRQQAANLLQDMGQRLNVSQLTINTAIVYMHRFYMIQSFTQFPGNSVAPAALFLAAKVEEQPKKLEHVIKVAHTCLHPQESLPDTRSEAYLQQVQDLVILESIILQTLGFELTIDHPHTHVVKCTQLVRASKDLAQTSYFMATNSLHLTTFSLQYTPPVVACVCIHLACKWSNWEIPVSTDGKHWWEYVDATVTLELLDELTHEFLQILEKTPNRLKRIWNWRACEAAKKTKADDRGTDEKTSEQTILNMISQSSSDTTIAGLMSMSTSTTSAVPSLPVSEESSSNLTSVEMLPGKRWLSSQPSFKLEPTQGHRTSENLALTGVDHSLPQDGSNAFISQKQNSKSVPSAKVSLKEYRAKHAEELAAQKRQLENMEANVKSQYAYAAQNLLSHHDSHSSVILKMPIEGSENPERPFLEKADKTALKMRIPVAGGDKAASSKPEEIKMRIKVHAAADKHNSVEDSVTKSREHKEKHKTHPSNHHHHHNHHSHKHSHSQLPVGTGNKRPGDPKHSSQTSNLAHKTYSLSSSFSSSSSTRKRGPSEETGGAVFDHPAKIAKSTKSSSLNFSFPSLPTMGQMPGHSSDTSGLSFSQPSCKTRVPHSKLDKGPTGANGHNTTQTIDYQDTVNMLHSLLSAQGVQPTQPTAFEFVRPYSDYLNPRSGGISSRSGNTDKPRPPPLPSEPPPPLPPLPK
Summary of the method: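 Full-length His-tagged human CDK9/CycT1 (insect cell, ~0.5 μg/mL) preincubated 15 min at 22 °C with compound in Tris pH 8.0, MgCl2, DTT buffer before reaction with biotinylated peptide substrate at high ATP (2 mM).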

SMILES	IC50 (CDK2/CycE)	IC50 (CDK9/CycT1)
Cc1cnn2c(NCc3nc4c(F)c(F)ccc4[nH]3)nc(N3CCOCC3)nc12 [Example 392, N-[(4,5-difluoro-1H-benzimidazol-2-yl)methyl]-8-methyl-2-(morpholin-4-yl)pyrazolo[1,5-a][1,3,5]triazin-4-amine]	> 20 µM	> 20 µM
Cc1cnn2c(NCc3nc4c(F)c(F)ccc4[nH]3)nc(N3CCN(C)CC3)nc12 [Example 394, N-[(4,5-difluoro-1H-benzimidazol-2-yl)methyl]-8-methyl-2-(4-methylpiperazin-1-yl)pyrazolo[1,5-a][1,3,5]triazin-4-amine]	> 20 µM	> 20 µM
Cc1cnn2c(NCc3nc4c(F)c(F)ccc4[nH]3)nc(N(C)CC(C)(C)O)nc12 [Example 395, 1-[(4-{[(4,5-difluoro-1H-benzimidazol-2-yl)methyl]amino}-8-methylpyrazolo[1,5-a][1,3,5]triazin-2-yl)(methyl)amino]-2-methylpropan-2-ol]	> 20 µM	> 20 µM
CN(C)CCOc1nc(NCc2nc3ccccc3[nH]2)n2ncc(Br)c2n1 [Example 399, N-[(1H-benzimidazol-2-yl)methyl]-8-bromo-2-[2-(dimethylamino)ethoxy]pyrazolo[1,5-a][1,3,5]triazin-4-amine]	> 20 µM	> 20 µM
Cc1cnn2c(NCc3nc4c(F)c(F)ccc4[nH]3)nc(N3CC4CCC(C3)N4)nc12 [Example 400, 2-(3,8-diazabicyclo[3.2.1]octan-3-yl)-N-[(4,5-difluoro-1H-benzimidazol-2-yl)methyl]-8-methylpyrazolo[1,5-a][1,3,5]triazin-4-amine]	> 20 µM	> 20 µM
Cc1cnn2c(NCc3nc4ccccc4[nH]3)nc(N3CC4CCC(C3)N4)nc12 [Example 401, N-[(1H-benzimidazol-2-yl)methyl]-2-(3,8-diazabicyclo[3.2.1]octan-3-yl)-8-methylpyrazolo[1,5-a][1,3,5]triazin-4-amine]	> 20 µM	> 20 µM
COC(C)(C)COc1nc(NCc2nc3ccccc3[nH]2)n2ncc(Br)c2n1 [Example 403, N-[(1H-benzimidazol-2-yl)methyl]-8-bromo-2-(2-methoxy-2-methylpropoxy)pyrazolo[1,5-a][1,3,5]triazin-4-amine]	> 20 µM	> 20 µM
Brc1cnn2c(NCc3nc4ccccc4[nH]3)nc(OCCN3CCCC3)nc12 [Example 404, N-[(1H-benzimidazol-2-yl)methyl]-8-bromo-2-[2-(pyrrolidin-1-yl)ethoxy]pyrazolo[1,5-a][1,3,5]triazin-4-amine]	> 20 µM	> 20 µM
Brc1cnn2c(NCc3nc4ccccc4[nH]3)nc(OC3CCOCC3)nc12 [Example 405, N-[(1H-benzimidazol-2-yl)methyl]-8-bromo-2-[(oxan-4-yl)oxy]pyrazolo[1,5-a][1,3,5]triazin-4-amine]	> 20 µM	> 20 µM
Fc1ccc2[nH]c(CNc3nc(N4CCN5CCC4CC5)nc4c(C(F)(F)F)cnn34)nc2c1F [Example 407, 2-(1,4-diazabicyclo[3.2.2]nonan-4-yl)-N-[(4,5-difluoro-1H-benzimidazol-2-yl)methyl]-8-(trifluoromethyl)pyrazolo[1,5-a][1,3,5]triazin-4-amine]	> 20 µM	> 20 µM
NCCOCCOCCNc1nc(NCc2nc3ccccc3[nH]2)n2ncc(Br)c2n1 [Example 412, N2-{2-[2-(2-aminoethoxy)ethoxy]ethyl}-N4-[(1H-benzimidazol-2-yl)methyl]-8-bromopyrazolo[1,5-a][1,3,5]triazine-2,4-diamine]	> 20 µM	> 20 µM
Fc1ccc2[nH]c(CNc3nc(N4CCOCC4)nc4c(-c5nccs5)cnn34)nc2c1F [Example 413, N-[(4,5-difluoro-1H-benzimidazol-2-yl)methyl]-2-(morpholin-4-yl)-8-(1,3-thiazol-2-yl)pyrazolo [1,5-a][1,3,5]triazin-4-amine]	> 20 µM	> 20 µM
COc1cccc2[nH]c(CNc3nc(N4CCOCC4)nc4c(-c5nccs5)cnn34)nc12 [Example 414, N-[(4-methoxy-1H-benzimidazol-2-yl)methyl]-2-(morpholin-4-yl)-8-(1,3-thiazol-2-yl)pyrazolo [1,5-a][1,3,5]triazin-4-amine]	> 20 µM	> 20 µM
CN1CCN(c2nc(NCc3nc4c(F)c(F)ccc4[nH]3)n3ncc(-c4nccs4)c3n2)CC1 [Example 415, N-[(4,5-difluoro-1H-benzimidazol-2-yl)methyl]-2-(4-methylpiperazin-1-yl)-8-(1,3-thiazol-2-yl)pyrazolo[1,5-a][1,3,5]triazin-4-amine]	> 20 µM	> 20 µM
COc1cccc2nc(CNc3nc(N4CCN(C)CC4)nc4c(-c5nccs5)cnn34)[nH]c12 [Example 416, N-[(7-methoxy-1H-benzimidazol-2-yl)methyl]-2-(4-methylpiperazin-1-yl)-8-(1,3-thiazol-2-yl)pyrazolo[1,5-a][1,3,5]triazin-4-amine]	> 20 µM	> 20 µM
Fc1ccc2[nH]c(CNc3nc(N4CCOCC4)nc4c(-c5ccnnc5)cnn34)nc2c1F [Example 417, N-[(4,5-difluoro-1H-benzimidazol-2-yl)methyl]-2-(morpholin-4-yl)-8-(pyridazin-4-yl)pyrazolo[1,5-a][1,3,5]triazin-4-amine]	> 20 µM	> 1.63 µM
Cn1cc(-c2cnn3c(NCc4nc5c(F)c(F)ccc5[nH]4)nc(N4CCOCC4)nc23)cn1 [Example 418, N-[(4,5-difluoro-1H-benzimidazol-2-yl)methyl]-8-(1-methyl-1H-pyrazol-4-yl)-2-(morpholin-4-yl)pyrazolo[1,5-a][1,3,5]triazin-4-amine]	> 20 µM	> 20 µM
Cn1cc(-c2cnn3c(NCc4nc5cc(Cl)c(Cl)cc5[nH]4)nc(N4CCOCC4)nc23)cn1 [Example 419, N-[(5,6-dichloro-1H-benzimidazol-2-yl)methyl]-8-(1-methyl-1H-pyrazol-4-yl)-2-(morpholin-4-yl)pyrazolo[1,5-a][1,3,5]triazin-4-amine]	> 20 µM	> 20 µM

More lines, now with the values ahead:

IC50 (CDK2/CycE)	IC50 (CDK9/CycT1)	SMILES
9.94 µM	> 20 µM	Cc1cnn2c(NCc3nc4ccccc4[nH]3)nc(N3CCOCC3)nc12 [Example 393, N-[(1H-benzimidazol-2-yl)methyl]-8-methyl-2-(morpholin-4-yl)pyrazolo[1,5-a][1,3,5]triazin-4-amine]
13.9 µM	> 20 µM	Cc1cnn2c(NCc3nc4ccccc4[nH]3)nc(N3CCN(C)CC3)nc12 [Example 396, N-[(1H-benzimidazol-2-yl)methyl]-8-methyl-2-(4-methylpiperazin-1-yl)pyrazolo[1,5-a][1,3,5]triazin-4-amine]
17.2 µM	> 20 µM	Cc1cnn2c(NCc3nc4ccccc4[nH]3)nc(N(C)CC(C)(C)O)nc12 [Example 397, 1-[(4-{[(1H-benzimidazol-2-yl)methyl]amino}-8-methylpyrazolo[1,5-a][1,3,5]triazin-2-yl)(methyl)amino]-2-methylpropan-2-ol]
10.4 µM	> 20 µM	CC(C)(O)COc1nc(NCc2nc3ccccc3[nH]2)n2ncc(Br)c2n1 [Example 398, 1-[(4-{[(1H-benzimidazol-2-yl)methyl]amino}-8-bromopyrazolo[1,5-a][1,3,5]triazin-2-yl)oxy]-2-methylpropan-2-ol]
9.56 µM	5.4 µM	CN(CC(C)(C)O)c1nc(NCc2nc3c(F)c(F)ccc3[nH]2)n2ncc(C(F)(F)F)c2n1 [Example 402, 1-{[4-{[(4,5-difluoro-1H-benzimidazol-2-yl)methyl]amino}-8-(trifluoromethyl)pyrazolo[1,5-a][1,3,5]triazin-2-yl](methyl)amino}-2-methylpropan-2-ol]
15 µM	> 20 µM	Brc1cnn2c(NCc3nc4ccccc4[nH]3)nc(OC3CCCCC3)nc12 [Example 406, N-[(1H-benzimidazol-2-yl)methyl]-8-bromo-2-(cyclohexyloxy)pyrazolo[1,5-a][1,3,5]triazin-4-amine]
> 19.7 µM	> 20 µM	Brc1cnn2c(NCc3nc4ccccc4[nH]3)nc(OCC3CC3)nc12 [Example 408, N-[(1H-benzimidazol-2-yl)methyl]-8-bromo-2-(cyclopropylmethoxy)pyrazolo[1,5-a][1,3,5]triazin-4-amine]
12.8 µM	> 20 µM	CC(C)COc1nc(NCc2nc3ccccc3[nH]2)n2ncc(Br)c2n1 [Example 409, N-[(1H-benzimidazol-2-yl)methyl]-8-bromo-2-(2-methylpropoxy)pyrazolo[1,5-a][1,3,5]triazin-4-amine]
10 µM	> 20 µM	Fc1cccc2[nH]c(CNc3nc(N4CCN5CCC4CC5)nc4c(C(F)(F)F)cnn34)nc12 [Example 410, 2-(1,4-diazabicyclo[3.2.2]nonan-4-yl)-N-[(4-fluoro-1H-benzimidazol-2-yl)methyl]-8-(trifluoromethyl)pyrazolo[1,5-a][1,3,5]triazin-4-amine]
16.3 µM	> 20 µM	Brc1cnn2c(NCc3nc4ccccc4[nH]3)nc(OC3CCNCC3)nc12 [Example 411, N-[(1H-benzimidazol-2-yl)methyl]-8-bromo-2-[(piperidin-4-yl)oxy]pyrazolo[1,5-a][1,3,5]triazin-4-amine]

— patent US20230117034A1, “PYRAZOLOTRIAZINES” (Bayer Aktiengesellschaft, priority 2019, published 2023)
